Measurements: paper PMC8471001 (Biosensors, 2021)
“Also recorded” adds a separate entry of the source.

Legend:
[1] = target: tyrosinase (EC 1.14.18.1, from mushroom); test: Amperometric biosensor: tyrosinase immobilized on carbon black paste electrode, inhibition of catechol response; format: biochemical; settings: for IC50: 0.1 M phosphate buffer pH 6.8, -0.15 V vs. Ag/AgCl; for IC50 / type of inhibition: immobilized tyrosinase; for type of inhibition: from shift of inhibition curve, 20 vs 200 µM catechol; for inhibition range of catechol response: 20 µM catechol
Experimental: The immobilization of tyrosinase onto the surface of the carbon black paste electrode (CBPE) was achieved by cross-linking with glutaraldehyde and bovine serum albumin (BSA) as reported elsewhere for several enzyme biosensors. In brief, the enzyme solution was first prepared by mixing 15 µL of Tyr (35 U/mL), 7.5 µL of BSA (1% w/v), and 7.5 µL of glutaraldehyde (0.25% w/v) on a glass slide. Then, 7.5 µL of the mixture was spread on the surface of a CBPE, and lastly, it was dried at room temperature for 1 h. Before electrochemical measurements, the enzyme electrode was placed under stirring for 10 min in PBS buffer to remove the enzyme not firmly immobilized. The electrodes were maintained at 4 °C in phosphate buffer, pH 6.8 until use.
The tyrosinase was immobilized on the surface of the carbon black paste electrode. The electrochemical measurements of o-quinone produced by the tyrosinase-based biosensor, in presence of catechol as substrate, were monitored by an amperometric measurement.
The enzyme activity assays were performed in an electrochemical cell containing 5 mL of 0.1 M phosphate buffer, pH 6.8 at 25 °C. The applied potential was fixed at −0.15 V.
To perform each amperometric measurement, the CBPE-Tyr electrode was dipped into an electrochemical cell containing 5 mL of 0.1 M phosphate buffer solution (pH 6.8) under constant magnetic stirring. The applied potential was fixed to −0.15 V versus Ag/AgCl. Once the baseline was established (10 min approximately), a defined amount of catechol solution was added to the measuring cell. […] Then, the inhibitor solutions were added consecutively each time a plateau was reached (approximately every 30 s). The addition of tyrosinase inhibitors causes an inhibition of the enzyme, consequently decreasing the amount of liberated enzymatic reaction products.
(§1) To evaluate the degree of inhibition (I%) of the tyrosinase activity, signal responses in the absence (I0) and the presence of an inhibitor (I1) were measured with either an electrochemical or colorimetric method. The degree of inhibition (I%) is expressed as follows: (1) I(%)=I0−I1/I0×100
When using the amperometric biosensor, the CBPE/Tyr modified electrode was immersed into a phosphate buffer solution at pH 6.8, under stirring and a fixed potential of −0.15 V. After stabilizing the baseline current, a fixed amount of catechol (substrate) was added to reach a steady-state current (I0) before adding the inhibitor. […] The concentration of inhibitors was increased to inhibit tyrosinase activity, and the current decrease (I1) was recorded.

[2] = system: mushroom tyrosinase; test: Spectrophotometric progress-curve assay of free tyrosinase with L-tyrosine (half-time reaction t'1/2); format: biochemical; settings: plot of t'1/2 versus inhibitor concentration at 0.5-3 mM L-tyrosine
Experimental: Substrate conversion was evaluated by measuring the increase in absorbance at 490 nm. The absorbance was sampled every 1 min, allowing each progression curve to be constructed in 40 min.
as §1

Row | Compound | IC50 ([1]; 20 µM catechol substrate) [µM] | IC50 ([1]; 200 µM catechol substrate) [µM] | type of inhibition [1] | inhibition range of catechol response ([1]; inhibitor 5 µM to 275 µM) | type of inhibition [2] | inhibition range of catechol response ([1]; inhibitor 2.5 µM to 97.5 µM) | inhibition range of catechol response ([1]; inhibitor 0.01 mM to 1.57 mM)
1 | O=C(O)c1ccccc1 [benzoic acid] | 119 | 500 | competed with catechol | 8–69% |  |  | 
2 | O=c1cc(CO)occ1O [kojic acid] |  |  | competitive inhibition; also recorded: competed with catechol |  | competitive inhibition | 13–74% | 
3 | [N-]=[N+]=[N-].[Na+] [sodium azide] | 1480 | 2000 | competed with catechol |  |  |  | 7–64%
